The values below come from patent US20200288710A1, “SUBSTITUTED SULPHONAMIDES FOR CONTROLLING ANIMAL PESTS” (BAYER CROPSCIENCE AKTIENGESELLSCHAFT, priority 2016, published 2020).

The structures appear in SMILES notation.

What all share (assay type): in vivo
The test system of assay [1] is Myzus persicae. Nature of the assay: Myzus persicae spray test (Chinese cabbage leaf discs). Particulars: foliar, 120 h, 500 g/ha, after 5-6 days, read-out: efficacy. In short, it runs like this:
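Formulated compound in acetone/dimethylformamide, diluted in water with 1000 ppm emulsifier, was sprayed onto Brassica pekinensis leaf discs carrying mixed-stage Myzus persicae. Percent mortality was read 5-6 days later (0% = no aphids killed, 100% = all killed).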

The subject of another assay is Meloidogyne incognita. The experiment in a line: Meloidogyne incognita test. The conditions noted are these: 336 h, lettuce, after 14 days, read-out: nematicidal efficacy (formation of galls). In short, it runs like this:
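Gall formation on lettuce roots scored after 14 days: 0% means gall count equals untreated control, 100% means none. Sand vessels held the compound (acetone concentrate diluted in water), southern root-knot nematode egg/larvae suspension and lettuce seeds.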

Assay [2] relates to Myzus persicae. Nature of the assay: Myzus persicae oral test. Particulars: 120 h, 20 ppm, oral uptake, after 5 days, read-out: efficacy. In short, it runs like this:
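Aphids of mixed ages imbibe, through parafilm, compound solution (acetone stock, water-diluted) combined with sugar-supplemented IPL41 medium to 200 μl. Efficacy read at day 5 as percent killed, 0% meaning no deaths.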

For the next assay, the system named is Phaedon cochleariae. Nature of the assay: Phaedon cochleariae spray test. Particulars: foliar, 168 h, Chinese cabbage leaf discs, larvae, after 7 days, read-out: efficacy. As to the method: Phaedon cochleariae—Spray Test
To produce a suitable preparation of active compound, 1 part by weight of active compound is dissolved using the specified parts by weight of solvent and made up with water containing an emulsifier concentration of 1000 ppm until the desired concentration is attained. To produce further test concentrations, the formulation is diluted with emulsifier-containing water.
After 7 days, the efficacy in % is determined. 100% means that all the beetle larvae have been killed; 0% means that no beetle larvae have been killed.

For the molecule `Cn1cc(C(=O)NS(=O)(=O)c2ccccc2Cl)nc1-c1sccc1Cl` [Example 547], the pest or weed control at 500 g/ha with Myzus persicae [1] turned out to be 90%. The figures for the pest or weed control at 20 ppm with Meloidogyne incognita and in the assay on Myzus persicae [2] were 100% and 90%, respectively.
Consider `Cc1[nH]c(-c2ccc(Cl)cc2)nc1C(=O)NS(=O)(=O)C(C)C` [Example 235], for which the pest or weed control at 500 g/ha in the assay with Myzus persicae [1] was determined as 100%. Moreover, the results for the pest or weed control at 20 ppm with Meloidogyne incognita and with Myzus persicae [2] were 90% and 100%, respectively.
In the case of `Cc1cc(C(=O)NS(=O)(=O)c2ccccc2Cl)nn1-c1ncccc1Cl` [Example 273], the pest or weed control at 500 g/ha in the assay with Myzus persicae [1] came to 100%. For the same molecule, the figures for the pest or weed control at 20 ppm in the assay on Meloidogyne incognita and in the assay with Myzus persicae [2] were 90% and 100%, respectively.
As for `Cc1cc(C(=O)NS(=O)(=O)c2ccccc2Br)nn1-c1ncccc1Br` [Example 296], the pest or weed control at 500 g/ha in the assay with Myzus persicae [1] worked out at 90%. For the same molecule, the pest or weed control at 20 ppm in the assay on Meloidogyne incognita and with Myzus persicae [2] was 90% throughout.
For `Cc1cc(C(=O)NS(=O)(=O)c2ccccc2Cl)nn1-c1c(F)cccc1F` [Example 1], the pest or weed control at 500 g/ha in the assay with Myzus persicae [1] turned out to be 100%. For the same molecule, the pest or weed control at 20 ppm in the assay with Meloidogyne incognita and with Myzus persicae [2] was 100% throughout.
As for `Cn1cc(C(=O)NS(=O)(=O)c2cccc3ccn(C)c23)nc1-c1c(F)cccc1F` [Example 323], the pest or weed control at 500 g/ha with Myzus persicae [1] was determined as 100%. Also, the pest or weed control at 20 ppm in the assay with Meloidogyne incognita was determined as 90%; in the assay with Myzus persicae [2] it was 100%.
Take `CCn1cc(C(=O)NS(=O)(=O)c2ccccc2)nc1-c1ccccc1Cl` [Example 41]: the pest or weed control at 500 g/ha with Myzus persicae [1] was determined as 90%. In addition, the pest or weed control at 20 ppm in the assay with Meloidogyne incognita and in the assay on Myzus persicae [2] was 90% throughout.
Take `Cn1cc(C(=O)NS(=O)(=O)c2ccc(Cl)s2)nc1-c1c(F)cccc1F` [Example 352]: the pest or weed control at 500 g/ha in the assay on Myzus persicae [1] was 90%. Also, the pest or weed control at 20 ppm in the assay with Meloidogyne incognita and in the assay with Myzus persicae [2] was 100% throughout.
As for `COc1ccc(Br)c(S(=O)(=O)NC(=O)c2cn(C)c(-c3cccc(Cl)c3Cl)n2)c1` [Example 557], the pest or weed control at 500 g/ha in the assay with Myzus persicae [1] turned out to be 90%. Besides, the pest or weed control at 20 ppm stood at 90% in the assay on Meloidogyne incognita and 100% in the assay on Myzus persicae [2].
Consider `Cn1cc(C(=O)NS(=O)(=O)c2ccccc2Cl)nc1-c1ncccc1F` [Example 499], for which the pest or weed control at 500 g/ha in the assay with Myzus persicae [1] was 100%. Besides, the pest or weed control at 20 ppm worked out at 90% in the assay on Meloidogyne incognita and 100% in the assay with Myzus persicae [2].
As to `Cc1ccccc1S(=O)(=O)NC(=O)c1cn(C)c(-c2ncccc2F)n1` [Example 500], the pest or weed control at 500 g/ha with Myzus persicae [1] stood at 100%. The figures for the pest or weed control at 20 ppm in the assay with Meloidogyne incognita and in the assay on Myzus persicae [2] were 90% and 100%, respectively.
For the molecule `CCc1ccsc1S(=O)(=O)NC(=O)c1cn(C)c(-c2ncccc2Cl)n1` [Example 605], the pest or weed control at 500 g/ha in the assay on Myzus persicae [1] was 100%. In addition, the pest or weed control at 20 ppm in the assay with Meloidogyne incognita is 90%; in the assay with Myzus persicae [2], 100%.
As to `Cc1c(C(=O)NS(=O)(=O)c2ccccc2)nc(-c2ccccc2Cl)n1C` [Example 39], the pest or weed control at 500 g/ha with Myzus persicae [1] was 90%. Further, the pest or weed control at 20 ppm in the assay on Meloidogyne incognita and in the assay with Myzus persicae [2] was 90% each time.
Turning to `CCn1cc(C(=O)NS(=O)(=O)c2c(Cl)cccc2Cl)nc1-c1ccccc1Cl` [Example 69], the pest or weed control at 500 g/ha with Myzus persicae [1] was determined as 90%. Further, the figures for the pest or weed control at 20 ppm in the assay with Meloidogyne incognita and in the assay with Myzus persicae [2] were 90% and 100%, respectively.
On to `CSc1cccc(Cl)c1S(=O)(=O)NC(=O)c1cn(C)c(-c2ccccc2Cl)n1` [Example 422], for which, in the assay on Myzus persicae [1], the pest or weed control at 500 g/ha came out at 90%. The figures for the pest or weed control at 20 ppm in the assay with Meloidogyne incognita and in the assay with Myzus persicae [2] were 90% and 100%, respectively.
For `Cn1cc(C(=O)NS(=O)(=O)c2cc(C(F)(F)F)ccc2Cl)nc1-c1c(F)cccc1F` [Example 453], the pest or weed control at 500 g/ha in the assay on Myzus persicae [1] amounted to 90%. For the same molecule, the pest or weed control at 20 ppm was 90% in the assay with Meloidogyne incognita and 100% with Myzus persicae [2].
Take `Cn1cc(C(=O)NS(=O)(=O)c2cccc(Cl)c2)nc1-c1ccccc1Cl` [Example 33]: the pest or weed control at 500 g/ha with Myzus persicae [1] came out at 90%. Further, the pest or weed control at 20 ppm with Meloidogyne incognita and with Myzus persicae [2] was 100% in each case.
Consider `Cc1cc(C(=O)NS(=O)(=O)c2ccccc2Br)nn1-c1c(F)cccc1F` [Example 257], for which the pest or weed control at 500 g/ha in the assay on Myzus persicae [1] came to 90%. The pest or weed control at 20 ppm with Meloidogyne incognita is 90%; in the assay on Myzus persicae [2], 100%.
For the molecule `Cn1cc(C(=O)NS(=O)(=O)c2ccc(Br)cc2Cl)nc1-c1c(F)cccc1F` [Example 440], in the assay with Myzus persicae [1], the pest or weed control at 500 g/ha was determined as 100%. The pest or weed control at 20 ppm with Meloidogyne incognita and in the assay on Myzus persicae [2] was 100% in each case.
Consider `Cn1cc(C(=O)NS(=O)(=O)c2cccc(Cl)c2Cl)nc1-c1ccccc1Cl` [Example 38], for which the pest or weed control at 500 g/ha in the assay on Myzus persicae [1] came out at 90%. Besides, the pest or weed control at 20 ppm with Meloidogyne incognita and in the assay with Myzus persicae [2] was 100% in each case.
For the molecule `Cn1cc(C(=O)NS(=O)(=O)c2ccccc2Br)nc1-c1cccc(Cl)c1Cl` [Example 555], the pest or weed control at 500 g/ha in the assay on Myzus persicae [1] came to 90%. For the same molecule, the pest or weed control at 20 ppm with Meloidogyne incognita was found to be 90%; in the assay on Myzus persicae [2], 100%.
`Cn1cc(C(=O)NS(=O)(=O)c2ccc(F)cc2Br)nc1-c1c(F)cccc1F` [Example 438]: the pest or weed control at 500 g/ha in the assay with Myzus persicae [1] was 100%. The pest or weed control at 20 ppm in the assay with Meloidogyne incognita and in the assay on Myzus persicae [2] was 90% each time.
For `Cc1ccccc1S(=O)(=O)NC(=O)c1nc(-c2c(F)cccc2F)n(C)c1C` [Example 196], in the assay with Myzus persicae [2], the pest or weed control at 20 ppm was found to be 100%. Further, in the assay with Phaedon cochleariae, the pest or weed control at 500 g/ha was determined as 100%.
As to `Cn1nc(C(=O)NS(=O)(=O)c2ccccc2Cl)nc1-c1ccccc1Cl` [Example 14], in the assay with Myzus persicae [1], the pest or weed control at 500 g/ha stood at 90%. The pest or weed control at 20 ppm worked out at 90% in the assay with Meloidogyne incognita and 100% in the assay with Myzus persicae [2].
As for `Cn1cc(C(=O)NS(=O)(=O)c2ccc(Br)cc2F)nc1-c1c(F)cccc1F` [Example 437], the pest or weed control at 500 g/ha in the assay on Myzus persicae [1] came out at 100%. Also, the pest or weed control at 20 ppm in the assay with Meloidogyne incognita turned out to be 90%; in the assay with Myzus persicae [2], 100%.
As to `COc1ccc(Cl)c(S(=O)(=O)NC(=O)c2cn(C)c(-c3cccc(Cl)c3Cl)n2)c1` [Example 554], in the assay on Myzus persicae [1], the pest or weed control at 500 g/ha was found to be 90%. Also, the pest or weed control at 20 ppm in the assay on Meloidogyne incognita stood at 90%; in the assay on Myzus persicae [2] it was 100%.
With `Cn1cc(C(=O)NS(=O)(=O)c2c(F)cccc2C(F)(F)F)nc1-c1c(F)cccc1F` [Example 371], in the assay with Myzus persicae [1], the pest or weed control at 500 g/ha is 90%. For the same molecule, the pest or weed control at 20 ppm was 90% in the assay with Meloidogyne incognita and 100% in the assay on Myzus persicae [2].
With `CCSc1cccc(Cl)c1S(=O)(=O)NC(=O)c1cn(C)c(-c2c(F)cccc2F)n1` [Example 179], the pest or weed control at 500 g/ha with Myzus persicae [1] was determined as 90%. Moreover, the pest or weed control at 20 ppm with Meloidogyne incognita is 90%; in the assay on Myzus persicae [2], 100%.
For `Cn1cc(C(=O)NS(=O)(=O)c2c(Cl)cccc2C(F)(F)F)nc1-c1c(F)cccc1F` [Example 372], in the assay on Myzus persicae [1], the pest or weed control at 500 g/ha came to 100%. In addition, the pest or weed control at 20 ppm in the assay on Meloidogyne incognita came out at 90%; with Myzus persicae [2], 100%.
As to `Cn1cc(C(=O)NS(=O)(=O)c2sccc2Br)nc1-c1c(F)cccc1F` [Example 354], in the assay with Myzus persicae [1], the pest or weed control at 500 g/ha came out at 100%. Also, the pest or weed control at 20 ppm in the assay with Meloidogyne incognita is 90%; in the assay on Myzus persicae [2] it was 100%.
As for `COc1cc(C(=O)NS(=O)(=O)c2ccccc2Br)nn1-c1ccccc1Cl` [Example 277], the pest or weed control at 500 g/ha in the assay with Myzus persicae [1] was determined as 100%. Moreover, the pest or weed control at 20 ppm came out at 90% with Meloidogyne incognita and 100% in the assay with Myzus persicae [2].
On to `Cn1nc(C(=O)NS(=O)(=O)c2c(Cl)cccc2Cl)nc1-c1c(F)cccc1F` [Example 13], for which the pest or weed control at 500 g/ha in the assay with Myzus persicae [1] worked out at 100%. Besides, the pest or weed control at 20 ppm in the assay on Meloidogyne incognita is 90%; in the assay with Myzus persicae [2] it was 100%.
`COc1ccccc1S(=O)(=O)NC(=O)c1cn(C)c(-c2cccc(Cl)c2Cl)n1` [Example 567]: in the assay on Myzus persicae [1], the pest or weed control at 500 g/ha was 100%. Also, the pest or weed control at 20 ppm in the assay with Meloidogyne incognita is 90%; in the assay with Myzus persicae [2], 100%.
On to `CCCc1ccccc1S(=O)(=O)NC(=O)c1cn(C)c(-c2c(F)cccc2F)n1` [Example 403], for which the pest or weed control at 500 g/ha with Myzus persicae [1] was 100%. For the same molecule, the values for the pest or weed control at 20 ppm in the assay with Meloidogyne incognita and in the assay with Myzus persicae [2] were 90% and 100%, respectively.
Regarding `Cc1cc(C(=O)NS(=O)(=O)c2ccccc2Br)nn1-c1ncccc1Cl` [Example 283], the pest or weed control at 500 g/ha in the assay on Myzus persicae [1] came out at 100%. Moreover, the pest or weed control at 20 ppm worked out at 90% with Meloidogyne incognita and 100% in the assay on Myzus persicae [2].
On to `O=C(NS(=O)(=O)c1ccc(Cl)cc1)c1nc(-c2ccccc2Cl)n(-c2ccccc2)c1Cl` [Example 105], for which the pest or weed control at 500 g/ha in the assay on Phaedon cochleariae came to 100%.
For the molecule `Cc1ccsc1S(=O)(=O)NC(=O)c1cn(C)c(-c2c(F)cccc2F)n1` [Example 184], the pest or weed control at 500 g/ha in the assay with Myzus persicae [1] came to 90%. The pest or weed control at 20 ppm in the assay with Meloidogyne incognita and in the assay on Myzus persicae [2] was 100% throughout.
Consider `Cc1ccccc1S(=O)(=O)NC(=O)c1cn(C)c(-c2cc(F)ccc2F)n1` [Example 520], for which the pest or weed control at 500 g/ha in the assay on Myzus persicae [1] amounted to 90%. In addition, the pest or weed control at 20 ppm with Meloidogyne incognita and with Myzus persicae [2] was 100% each time.
